In patent publication US12570609B2, “Tricyclic sulfones as ROR gamma modulators” (BRISTOL-MYERS SQUIBB COMPANY, priority 2020, dated 2026):

Experiments:
Type in all cases: cell-based
[1] = biological target: T1, human sodium channel gene SCN5A ion channel (Homo sapiens, UniProt Q14524); experiment: Patch clamp assay for sodium channel recording; conditions: HEK 293 cells expressing SCN5A
T1 construct: expressed in transfected cells
Description: All results are reported as mean±SEM. DMSO was used as a vehicle, with the final concentration of DMSO not exceeding 0.1%.
Membrane current recordings were made with a Multiclamp 700 series integrating patch-clamp amplifier (Axon Instruments, Foster City, California) using the whole-cell variant of the conventional patch-clamp technique. Cells expressing sodium SCN5A ion channels were placed in a plexiglass bath chamber, mounted on the stage of an inverted microscope, and perfused continuously with bath solution.
The sodium current bath solution, contained (in mM): 140 NaCl, 4 KCl, 1.8 CaCl2, 1 MgCl2, 10 glucose, 10 HEPES (pH 7.4, NaOH). […]
For determining steady state inhibition, sodium currents were elicited every 5 seconds (0.2 Hz) using the following voltage protocol. […] The peak sodium current in response to the depolarizing step to −20 mV was monitored in the control buffer and after application of test article until a new steady state in the presence of the test article was achieved. […] Rate dependent inhibition was calculated by comparing the average of the last 3 sweeps of 30 voltage sweeps in presence of test article to the average of the last 3 sweeps of 30 voltage sweeps under control conditions at each frequency tested.
Currents were sampled at rates at least 2 times the low pass filter rate. […] All currents were recorded at room temperature ˜25° C.

IL17A = experiment: Human whole blood assay (IL17A content, AlphaLISA); conditions: compared with Compound A
Protocol: The compounds were diluted in dimethyl sulfoxide (DMSO) and were transferred to individual wells of a Matrix Technologies clear, V-bottom 384-well plate using the ECHO acoustic liquid handling technology (60 nL per well). Human whole blood samples (30 μL) were added to each well using a CyBio FeliX liquid handling instrument and the plate was shaken on a plate shaker for 3 min, incubating at 37° C. for 1 h. Wells were then treated with CD3+CD28 with a final concentration of 1 μg/mL, 30 μL per well in an AIM-V medium, the plate was shaken on a plate shaker for 3 min before incubating the reaction mixtures at 37° C. for 20 h. Plasma was liberated from each sample by centrifugation (450 g, 5 min, ambient temperature).

RORγ = biological target: T2, RORγ (Homo sapiens, UniProt P51449); experiment: RORγ Gal4 reporter assay (Gal4-luciferase, Jurkat cells); conditions: Jurkat cells over-expressing RORγ, overnight incubation
T2 construct: Jurkat pEx/Gal/hRORγCLBD/HYG pG5luc/blast; expressed in transfected cells
T2 sequence (P51449 269-508 limits assumed): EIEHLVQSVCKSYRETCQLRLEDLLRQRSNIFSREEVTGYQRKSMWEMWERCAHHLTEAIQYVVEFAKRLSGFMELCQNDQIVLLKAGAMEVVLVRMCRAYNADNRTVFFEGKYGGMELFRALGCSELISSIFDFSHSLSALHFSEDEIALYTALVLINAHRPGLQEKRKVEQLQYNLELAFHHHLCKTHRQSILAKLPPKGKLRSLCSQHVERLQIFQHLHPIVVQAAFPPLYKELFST
Protocol: General RORγ Gal4 Reporter Assay
Inverse agonist activity of potential ligands to RORγ was measured by inhibition of luminescence in a Gal4-luciferase reporter assay in Jurkat cells.
The following day, cells were lysed with 10 μL of Steady-Glo Luciferase Assay System (Promega Cat. No. EZ550), and analyzed immediately. IC50 values were determined.

T1 sequence (Q14524 whole entry): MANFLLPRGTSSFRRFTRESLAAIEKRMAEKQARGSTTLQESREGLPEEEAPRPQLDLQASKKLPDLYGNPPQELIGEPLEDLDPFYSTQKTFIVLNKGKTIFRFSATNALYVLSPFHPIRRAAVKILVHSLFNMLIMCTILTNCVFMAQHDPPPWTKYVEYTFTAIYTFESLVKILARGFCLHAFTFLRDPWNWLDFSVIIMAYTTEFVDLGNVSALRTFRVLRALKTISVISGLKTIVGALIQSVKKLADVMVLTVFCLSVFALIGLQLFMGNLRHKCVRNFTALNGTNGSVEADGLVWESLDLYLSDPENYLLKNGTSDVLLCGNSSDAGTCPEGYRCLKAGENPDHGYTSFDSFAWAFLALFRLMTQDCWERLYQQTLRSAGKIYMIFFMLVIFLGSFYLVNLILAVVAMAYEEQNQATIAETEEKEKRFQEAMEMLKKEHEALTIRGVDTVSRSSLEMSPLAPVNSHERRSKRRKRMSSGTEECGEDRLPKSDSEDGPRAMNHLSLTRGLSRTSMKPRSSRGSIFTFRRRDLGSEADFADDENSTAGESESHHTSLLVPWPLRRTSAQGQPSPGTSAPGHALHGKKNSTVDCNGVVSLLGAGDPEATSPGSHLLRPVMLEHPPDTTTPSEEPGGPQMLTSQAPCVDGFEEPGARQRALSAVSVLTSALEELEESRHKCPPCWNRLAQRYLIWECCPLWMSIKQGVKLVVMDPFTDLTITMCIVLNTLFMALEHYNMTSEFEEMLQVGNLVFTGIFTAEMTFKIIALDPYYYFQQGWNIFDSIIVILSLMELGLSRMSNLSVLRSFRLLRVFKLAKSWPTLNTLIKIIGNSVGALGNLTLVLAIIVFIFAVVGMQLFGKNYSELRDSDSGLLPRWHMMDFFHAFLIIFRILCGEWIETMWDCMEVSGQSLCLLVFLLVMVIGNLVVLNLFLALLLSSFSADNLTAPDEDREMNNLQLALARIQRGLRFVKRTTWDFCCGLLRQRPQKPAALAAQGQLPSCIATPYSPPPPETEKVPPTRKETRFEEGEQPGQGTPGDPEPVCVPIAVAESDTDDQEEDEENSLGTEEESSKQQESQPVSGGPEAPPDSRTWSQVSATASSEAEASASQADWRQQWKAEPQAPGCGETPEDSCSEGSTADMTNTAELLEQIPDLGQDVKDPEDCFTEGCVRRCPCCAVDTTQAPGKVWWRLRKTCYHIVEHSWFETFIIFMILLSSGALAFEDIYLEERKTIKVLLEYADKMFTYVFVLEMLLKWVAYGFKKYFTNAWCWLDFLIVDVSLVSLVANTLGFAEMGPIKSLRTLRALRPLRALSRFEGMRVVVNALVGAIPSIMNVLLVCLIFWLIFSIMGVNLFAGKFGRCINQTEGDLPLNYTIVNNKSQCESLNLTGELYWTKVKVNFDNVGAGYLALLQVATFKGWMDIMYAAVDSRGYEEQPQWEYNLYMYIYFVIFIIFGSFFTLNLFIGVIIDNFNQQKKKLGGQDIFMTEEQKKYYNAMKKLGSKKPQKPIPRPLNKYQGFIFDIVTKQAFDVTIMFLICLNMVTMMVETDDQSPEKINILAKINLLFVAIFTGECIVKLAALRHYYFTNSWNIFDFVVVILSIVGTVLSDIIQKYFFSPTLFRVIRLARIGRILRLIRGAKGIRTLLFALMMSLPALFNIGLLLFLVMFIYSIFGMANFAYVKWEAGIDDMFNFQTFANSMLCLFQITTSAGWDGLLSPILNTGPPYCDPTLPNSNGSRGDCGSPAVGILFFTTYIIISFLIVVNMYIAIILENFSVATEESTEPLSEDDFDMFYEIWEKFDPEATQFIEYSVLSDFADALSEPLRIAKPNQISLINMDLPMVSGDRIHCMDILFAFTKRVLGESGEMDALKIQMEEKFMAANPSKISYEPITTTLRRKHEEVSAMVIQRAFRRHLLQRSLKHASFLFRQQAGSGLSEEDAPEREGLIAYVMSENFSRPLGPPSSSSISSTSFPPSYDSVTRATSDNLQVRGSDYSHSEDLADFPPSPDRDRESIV

Row | Structure (SMILES) | activity in the Na channel assay (in words) [1] | IC50 ([1]; whole-cell patch clamp, read-out: Na Channel) [µM] | potency in the human whole blood assay relative to Compound A (IL17A) | IC50 (RORγ) [nM]
1 | C[C@@](O)(CS(C)(=O)=O)C(=O)N[C@@H]1CC[C@@]2(S(=O)(=O)c3ccc(F)cc3)c3ccc(C(F)(C(F)(F)F)C(F)(F)F)nc3CC[C@@H]12 [Example 1, (S)—N-((6aS,7R,9aS)-9a-((4-fluorophenyl)sulfonyl)-3-(perfluoropropan-2-yl)-6,6a,7,8,9,9a-hexahydro-5H-cyclopenta[f]quinolin-7-yl)-2-hydroxy-2-methyl-3-(methylsulfonyl)propanamide] | essentially inactive | > 30 | twice as potent | –
2 | CC(C)(O)CC(=O)N[C@@H]1CC[C@@]2(S(=O)(=O)c3ccc(F)cc3)c3ccc(C(F)(C(F)(F)F)C(F)(F)F)nc3CC[C@@H]12 [Example 2] | – | – | – | 6
3 | O=C(N[C@@H]1CC[C@@]2(S(=O)(=O)c3ccc(F)cc3)c3ccc(C(F)(C(F)(F)F)C(F)(F)F)nc3CC[C@@H]12)C1CCS(=O)(=O)CC1 [Example 3] | – | – | – | 8.4
4 | CC(C)(O)C(=O)N[C@@H]1CC[C@@]2(S(=O)(=O)c3ccc(F)cc3)c3ccc(C(F)(C(F)(F)F)C(F)(F)F)nc3CC[C@@H]12 [Example 4] | – | – | – | 3.9
5 | O=C(O)C1CC2(C1)CC(C(=O)N[C@@H]1CC[C@@]3(S(=O)(=O)c4ccc(F)cc4)c4ccc(C(F)(C(F)(F)F)C(F)(F)F)nc4CC[C@@H]13)C2 (stereo partly shown) [Example 6] | – | – | – | 7.9
